Test results taken from patent publication US10221163B2 (priority 2015, dated 2019).
Like-named read-outs stand apart in the source and are kept apart here.

What was measured:
[1] = system: Pseudomonas aeruginosa efflux− (MB9799), IMP-1; format: cell-based; settings: C, D serine β-lactamase inhibitor closely related to relebactam; for P. aeruginosa expressing IMP-1, efflux − (MB9799) MITC95: concentration restoring susceptibility to imipenem at 2 μg/mL in the presence of a class A
Outline: (§1)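 PAO1 pair, broth microdilution; fixed β-lactam (imipenem/ceftazidime) at ~CLSI breakpoint + fixed class A/C BLI for AmpC; serial MBLi titration; endpoint = MBLi conc. restoring susceptibility; MB9798:MB9799 ratio = efflux liability.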

IMP-1 = IMP-1 (Serratia marcescens, UniProt P52699); assay: biochemical; format: biochemical; settings: fluorescence assay, CCF2-FA substrate, 2 pM enzyme, 2 hours at 25° C.; read-out: IMP-1 IC50
Outline: (§2)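 Two-hour, 25° C incubation of enzyme with inhibitor and CCF2-FA (7-hydroxycoumarin–cephalosporin–fluorescein). Fluorescence read-out; IC50 via 4-parameter fit.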

NDM-1 = NDM-1 (Klebsiella pneumoniae, UniProt C7C422); assay: biochemical; format: biochemical; settings: fluorescence assay, CCF2-FA substrate, 1 pM enzyme, 2 hours at 25° C.; read-out: NDM-1 IC50
Outline: as §2

[2] = system: Pseudomonas aeruginosa MB9798 vs MB9799
Outline: as §1

[3] = system: Pseudomonas aeruginosa efflux+ (MB9798), IMP-1; format: cell-based; set-up: Concentration of metallo-β-lactamase inhibitor which restores susceptibility of efflux + (MB9798) strain to imipenem: unit not given here; settings: C, D serine β-lactamase inhibitor closely related to relebactam; for P. aeruginosa expressing IMP-1, efflux + (MB9798) MITC95: concentration restoring susceptibility to imipenem at 2 μg/mL in the presence of a class A
Outline: as §1

[4] = system: Klebsiella pneumoniae expressing VIM-1 (IHMA599644); format: cell-based; settings: for Klebsiella pneumoniae expressing VIM-1 (IHMA599644) MITC95: with imipenem 1 μg/ml, 95% inhibition of bacterial growth; for Klebsiella pneumoniae MITC95: VIM-1 strain IHMA599644, with imipenem 1 μg/ml, 95% inhibition of growth
Outline: (§3)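 Clinical strains grown overnight on blood agar at 35°C, colonies suspended in saline, diluted 1:100 into 1.1×CAMHB. Test compound titrated with imipenem at 1 μg/ml; incubated 22–24 h at 35°C, growth read by absorbance.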

[5] = system: Escherichia coli expressing NDM-1 (CLB30005, CLB30016); format: cell-based; settings: with imipenem 1 μg/ml; for Escherichia coli expressing NDM-1 (CLB30016) MITC95: 95% inhibition of bacterial growth; for Escherichia coli MITC95: NDM-1 strain, 95% inhibition of growth
Outline: as §3

[6] = system: Serratia marcescens expressing IMP-1 (CL5741); format: cell-based; settings: for Serratia marcescens expressing IMP-1 (CL5741) MITC95: with imipenem 1 μg/ml, 95% inhibition of bacterial growth; for Serratia marcescens MITC95: IMP-1 strain CL5741, with imipenem 1 μg/ml, 95% inhibition of growth
Outline: as §3

VIM-1 = VIM-1 (Pseudomonas aeruginosa (strain ATCC 15692 / DSM 22644 / CIP 104116 / JCM 14847 / LMG 12228 / 1C / PRS 101 / PAO1), UniProt A0A0F7KYQ8); assay: biochemical; settings: CCF2-FA substrate, 30 pM enzyme, 2 hours at 25° C.
Outline: as §2

[7] = ratio MITC95 PA_9798/MITC95 PA_9799
[8] = fluorescence assay, read-out: VIM-1 IC50

Sequence of NDM-1 (C7C422 whole entry, looked up, species assumed): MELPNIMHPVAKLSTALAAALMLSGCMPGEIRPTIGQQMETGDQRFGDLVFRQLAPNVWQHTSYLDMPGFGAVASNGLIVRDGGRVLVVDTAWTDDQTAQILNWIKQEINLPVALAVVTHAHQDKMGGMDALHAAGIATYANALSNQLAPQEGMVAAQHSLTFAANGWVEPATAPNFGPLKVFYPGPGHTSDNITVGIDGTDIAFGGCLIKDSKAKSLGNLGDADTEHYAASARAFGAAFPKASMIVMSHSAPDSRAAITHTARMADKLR
Sequence of IMP-1 (P52699 whole entry, looked up, species assumed): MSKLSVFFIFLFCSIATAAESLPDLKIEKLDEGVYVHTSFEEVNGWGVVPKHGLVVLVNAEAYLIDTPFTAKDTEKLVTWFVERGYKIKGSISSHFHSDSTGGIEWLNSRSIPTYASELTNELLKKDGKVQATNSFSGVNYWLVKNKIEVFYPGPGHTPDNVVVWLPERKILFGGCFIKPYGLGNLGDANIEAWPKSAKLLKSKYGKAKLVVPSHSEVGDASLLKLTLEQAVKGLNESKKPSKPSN

| SMILES | P. aeruginosa expressing IMP-1, efflux − (MB9799) MITC95 [1] [µM] | IC50 (IMP-1) [nM] | IC50 (NDM-1) [nM] | Efflux ratio [2, 7] | P. aeruginosa expressing IMP-1, efflux + (MB9798) MITC95 [3] [µM] | Klebsiella pneumoniae expressing VIM-1 (IHMA599644) MITC95 [4] [µM] | Escherichia coli expressing NDM-1 (CLB30016) MITC95 [5] [µM] | Serratia marcescens expressing IMP-1 (CL5741) MITC95 [6] [µM] | IC50 (VIM-1; VIM-1 IC50, fluorescence assay) [nM] | Klebsiella pneumoniae MITC95 [4] [µM] | Escherichia coli MITC95 [5] [µM] | Serratia marcescens MITC95 [6] [µM] | IC50 (VIM-1; [8]) [nM] | Concentration of metallo-β-lactamase inhibitor which restores susceptibility of efflux − (MB9799) strain to imipenem ([1]; efflux− MB9799, imipenem at 2 μg/mL, in the presence of a class A) | Efflux ratio ([2]; fold difference between efflux+ (MB9798) and efflux− (MB9799) strains, imipenem at 2 μg/mL) | Concentration of metallo-β-lactamase inhibitor which restores susceptibility of efflux + (MB9798) strain to imipenem ([3]; efflux+ MB9798, imipenem at 2 μg/mL, in the presence of a class A) |
| --- | --- | --- | --- | --- | --- | --- | --- | --- | --- | --- | --- | --- | --- | --- | --- | --- |
| C[C@H](N)CNS(=O)(=O)c1ccc(-c2cccc3sc(N)nc23)c(-c2nnn[nH]2)c1S(N)(=O)=O.O=CO [Example 127, (S)-4-(2-aminobenzo[d]thiazol-4-yl)-N1-(2-aminopropyl)-3-(1H-tetrazol-5-yl)benzene-1,2-disulfonamide, formate salt] | 1.563 | 0.322 | 0.0421 | 1.00 | 1.563 | 3.125 | 3.125 | 1.563 | 0.236 |  |  |  |  |  |  |  |
| NCc1nc2c(-c3ccc(S(=O)(=O)NC(CN)CN)c(S(N)(=O)=O)c3-c3nn[nH]n3)cccc2[nH]1 [Example 385, 4-(2-(Aminomethyl)-1H-benzo[d]imidazol-4-yl)-N1-(1,3-diaminopropan-2-yl)-3-(2H-tetrazol-5-yl)benzene-1,2-disulfonamide] | 0.7813 | 0.782 | 0.111 | 1.00 | 0.7813 |  |  |  |  | 1.563 | 0.7813 | 0.7813 | 0.13 |  |  |  |
| C[C@@H](N)c1nc2c(-c3ccc(S(=O)(=O)N[C@@H]4CCNC4)c(S(N)(=O)=O)c3-c3nn[nH]n3)cccc2[nH]1 [Example 273, 4-(2-((R)-1-aminoethyl)-1H-benzo[d]imidazol-4-yl)-N1-((R)-pyrrolidin-3-yl)-3-(2H-tetrazol-5-yl)benzene-1,2-disulfonamide] | 0.7813 | 1.41 | 0.0565 | 1.00 | 0.7813 |  |  |  |  | 1.563 | 1.563 | 1.563 | 0.124 |  |  |  |
| NCCNS(=O)(=O)c1ccc(-c2cccc3[nH]cnc23)c(-c2nn[nH]n2)c1S(N)(=O)=O [Example 199, N^1-(2-aminoethyl)-4-(1H-benzo[d]imidazol-4-yl)-3-(2H-tetrazol-5-yl)benzene-1,2-disulfonamide] | 1.432 | 0.102 | 0.0257 | 0.55 | 0.7813 | 2.865 | 1.042 | 1.042 |  |  |  |  | 0.0471 |  |  |  |
| C[C@@H](CN)NS(=O)(=O)c1ccc(-c2cccc3[nH]c(N)nc23)c(-c2nn[nH]n2)c1S(N)(=O)=O [Example 186] | 0.7813 | 4.09 | 0.366 | 2.00 | 1.563 | 1.563 | 0.7813 | 1.563 | 0.901 |  |  |  |  |  |  |  |
| NCC(CN)NS(=O)(=O)c1ccc(-c2ccc(N)nc2)c(-c2nn[nH]n2)c1S(N)(=O)=O [Example 404] |  | 0.354 | 0.232 |  |  |  |  |  |  | 1.172 | 0.293 | 0.5859 | 0.297 | 0.9766 | 1.20 | 1.172 |
| NC[C@H](N)CNS(=O)(=O)c1ccc(-c2cnccc2N)c(-c2nn[nH]n2)c1S(N)(=O)=O [Example 223, (S)-4-(4-aminopyridin-3-yl)-N1-(2,3-diaminopropyl)-3-(2H-tetrazol-5-yl)benzene-1,2-disulfonamide] | 0.7813 | 4.51 | 1.75 | 2.00 | 1.563 | 0.3906 | 0.09766 | 0.3906 | 1.41 |  |  |  |  |  |  |  |
| NCC(CN)NS(=O)(=O)c1ccc(-c2cccnc2N)c(-c2nn[nH]n2)c1S(N)(=O)=O [Example 210, 4-(2-aminopyridin-3-yl)-N1-(1,3-diaminopropan-2-yl)-3-(2H-tetrazol-5-yl)benzene-1,2-disulfonamide] | 1.563 | 1.5 | 0.126 | 2.00 | 3.125 | 3.125 | 0.1953 | 0.7813 |  |  |  |  | 0.197 |  |  |  |
| Nc1nc2c(-c3ccc(S(=O)(=O)NCC4CNCCO4)c(S(N)(=O)=O)c3-c3nnn[nH]3)cccc2s1.O=C(O)C(F)(F)F (stereo not drawn) [Example 112, 2-((4-(2-aminobenzo[d]thiazol-4-yl)-2-sulfamoyl-3-(1H-tetrazol-5-yl)phenylsulfonamido)methyl)morpholin-4-ium 2,2,2-trifluoroacetate] | 1.563 | 0.318 | 0.046 | 1.00 | 1.563 | 3.125 | 1.563 | 1.563 | 0.219 |  |  |  |  |  |  |  |
| NCCNS(=O)(=O)c1ccc(-c2cnc3cc[nH]c3c2)c(-c2nn[nH]n2)c1S(N)(=O)=O [Example 359, N1-(2-aminoethyl)-4-(1H-pyrrolo[3,2-b]pyridin-6-yl)-3-(2H-tetrazol-5-yl)benzene-1,2-disulfonamide] | 0.7813 | 1.61 | 0.154 | 2.00 | 1.563 |  |  |  |  | 1.563 | 0.09766 | 0.3906 | 0.254 |  |  |  |
| C[C@@H](N)CNS(=O)(=O)c1ccc(-c2cccc3[nH]c(N)nc23)c(-c2nn[nH]n2)c1S(N)(=O)=O [Example 185, 4-(2-amino-1H-benzo[d]imidazol-4-yl)-N1-((R)-2-aminopropyl)-3-(2H-tetrazol-5-yl)benzene-1,2-disulfonamide] | 0.5906 | 0.524 | 0.0476 | 0.65 | 0.3844 | 1.025 | 0.2135 | 0.7688 |  |  |  |  | 0.19 |  |  |  |
